ChEMBL document CHEMBL1135090, “Non-peptide alpha(v)beta(3) antagonists. Part 3: identification of potent RGD mimetics incorporating novel beta-amino acids as aspartic acid replacements” (Bioorg Med Chem Lett, 2002)
pIC50: −log10 of the molar value.

What was measured:
[1] = biological target: T1, Integrin alpha-IIb/beta-3 (Homo sapiens) (UniProt P05106+P08514); test: Inhibition of ADP-stimulated alphaIIb-beta3 integrin mediated human platelet aggregation at 10 uM
[2] = Partition coefficient (logP); assay type: physicochemical; conditions: octanol/water
Integrin alpha-V/beta-3 = Integrin alpha-V/beta-3 (Homo sapiens, UniProt P05106+P06756); test: Inhibition of high affinity radioligand binding to human alphaV-beta3 integrin; assay type: protein-complex assay
[3] = biological target: T1, Integrin alpha-IIb/beta-3 (Homo sapiens); test: Inhibition of ADP-stimulated alphaIIb-beta3 integrin mediated human platelet aggregation at 776 uM
[4] = Bioavailability (dose 1 mg/kg p.o. and 0.2 mg/kg i.v.); assay type: ADME, organism-based; conditions: eutheria, in vivo, po
[5] = biological target: T1, Integrin alpha-IIb/beta-3 (Homo sapiens); test: Inhibition of ADP-stimulated alphaIIb-beta3 integrin mediated human platelet aggregation at 5.7 uM
[6] = Compound was tested for plasma clearance on administered orally as aqueous solutions at 1 mpk and by iv at 0.2 mpk; assay type: ADME, organism-based; conditions: 0.2 mg/kg
[7] = biological target: T1, Integrin alpha-IIb/beta-3 (Homo sapiens); test: Inhibition of ADP-stimulated alphaIIb-beta3 integrin mediated human platelet aggregation at 11 uM

Chain of Integrin alpha-V/beta-3 (P05106 27-788 limits assumed): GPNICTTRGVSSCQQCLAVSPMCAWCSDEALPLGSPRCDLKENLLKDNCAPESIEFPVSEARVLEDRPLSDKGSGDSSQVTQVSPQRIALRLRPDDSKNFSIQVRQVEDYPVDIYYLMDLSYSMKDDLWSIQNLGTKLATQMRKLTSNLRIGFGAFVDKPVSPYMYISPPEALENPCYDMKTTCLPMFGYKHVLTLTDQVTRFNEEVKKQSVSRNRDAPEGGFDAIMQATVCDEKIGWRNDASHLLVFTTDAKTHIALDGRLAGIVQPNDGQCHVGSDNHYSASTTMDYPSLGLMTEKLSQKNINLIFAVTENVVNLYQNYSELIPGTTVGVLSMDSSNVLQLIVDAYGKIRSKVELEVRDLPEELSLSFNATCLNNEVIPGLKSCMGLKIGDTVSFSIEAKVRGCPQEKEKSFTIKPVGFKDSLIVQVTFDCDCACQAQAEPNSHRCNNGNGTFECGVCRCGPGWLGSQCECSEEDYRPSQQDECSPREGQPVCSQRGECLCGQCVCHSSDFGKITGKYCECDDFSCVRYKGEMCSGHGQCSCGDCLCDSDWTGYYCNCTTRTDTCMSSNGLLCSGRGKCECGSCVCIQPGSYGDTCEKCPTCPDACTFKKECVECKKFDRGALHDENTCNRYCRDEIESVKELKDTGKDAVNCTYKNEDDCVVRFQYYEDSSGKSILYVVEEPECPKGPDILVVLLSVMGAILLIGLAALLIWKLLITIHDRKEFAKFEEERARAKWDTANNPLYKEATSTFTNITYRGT
Chain of Integrin alpha-V/beta-3 (P06756 31-889 limits assumed): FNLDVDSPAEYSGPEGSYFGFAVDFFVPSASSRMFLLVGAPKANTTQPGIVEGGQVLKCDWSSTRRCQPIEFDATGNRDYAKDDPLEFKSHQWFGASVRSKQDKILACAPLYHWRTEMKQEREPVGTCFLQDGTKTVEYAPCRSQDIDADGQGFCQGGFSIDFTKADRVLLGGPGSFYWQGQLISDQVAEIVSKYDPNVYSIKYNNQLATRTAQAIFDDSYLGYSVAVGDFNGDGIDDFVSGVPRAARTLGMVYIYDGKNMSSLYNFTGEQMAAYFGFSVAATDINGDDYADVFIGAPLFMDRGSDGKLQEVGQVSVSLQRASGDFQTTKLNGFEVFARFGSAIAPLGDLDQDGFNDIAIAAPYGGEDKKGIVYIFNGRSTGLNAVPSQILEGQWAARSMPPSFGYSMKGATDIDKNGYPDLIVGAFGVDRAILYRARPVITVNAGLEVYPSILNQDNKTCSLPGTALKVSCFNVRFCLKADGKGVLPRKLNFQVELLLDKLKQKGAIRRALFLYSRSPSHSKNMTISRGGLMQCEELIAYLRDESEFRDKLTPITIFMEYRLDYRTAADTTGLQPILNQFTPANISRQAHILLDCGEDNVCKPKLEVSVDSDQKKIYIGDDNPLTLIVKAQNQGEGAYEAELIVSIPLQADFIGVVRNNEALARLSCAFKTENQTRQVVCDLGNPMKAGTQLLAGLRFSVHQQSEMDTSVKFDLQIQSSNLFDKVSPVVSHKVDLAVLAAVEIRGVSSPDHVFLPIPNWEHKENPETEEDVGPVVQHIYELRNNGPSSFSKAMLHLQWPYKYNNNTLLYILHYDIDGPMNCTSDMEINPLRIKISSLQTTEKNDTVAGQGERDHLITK
Chain of Integrin alpha-V/beta-3 (P06756 891-1048 limits assumed): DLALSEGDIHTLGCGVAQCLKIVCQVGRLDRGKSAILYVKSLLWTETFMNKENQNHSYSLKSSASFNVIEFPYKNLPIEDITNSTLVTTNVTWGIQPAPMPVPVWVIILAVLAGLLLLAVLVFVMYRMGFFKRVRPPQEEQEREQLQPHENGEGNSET

Row | inhibition [1] [%] | pIC50 (Integrin alpha-V/beta-3) | SMILES | other results
1 | 3 | 8.24 | O=C(O)C[C@H](NC(=O)CN1CC[C@H](CCc2ccc3c(n2)NCCC3)C1=O)c1ccc2c(c1)OC(F)(F)O2 | logP [2]: 1.44
2 | 60 | 9.96 | O=C(O)C[C@H](NC(=O)CN1CC[C@H](CCc2ccc3c(n2)NCCC3)C1=O)c1ccc2c(c1)OCC2 | 
3 |  | 10.40 | O=C(O)C[C@H](NC(=O)CN1CC[C@H](CCc2ccc3c(n2)NCCC3)C1=O)c1cnc2ccccc2c1 | inhibition [3]: 50%
4 |  | 6.64 | O=C(O)CCNC(=O)CN1CC[C@H](CCc2ccc3c(n2)NCCC3)C1=O | 
5 | 3 | 9.24 | O=C(O)C[C@H](NC(=O)CN1CC[C@H](CCc2ccc3c(n2)NCCC3)C1=O)c1ccc(-c2ccccc2)c(F)c1 | 
6 | 30 | 9.31 | COc1ccc([C@H](CC(=O)O)NC(=O)CN2CC[C@H](CCc3ccc4c(n3)NCCC4)C2=O)cc1F | 
7 |  | 7.54 | O=C(O)C[C@H](NC(=O)CN1CC[C@H](CCc2ccc3c(n2)NCCC3)C1=O)c1ccc2c(c1)CCC2 | 
8 | 20 | 8.96 | O=C(O)C[C@H](NC(=O)CN1CC[C@H](CCc2ccc3c(n2)NCCC3)C1=O)c1ccc2c(c1)CCO2 | 
9 | 19 | 8.43 | O=C(O)C[C@H](NC(=O)CN1CC[C@H](CCc2ccc3c(n2)NCCC3)C1=O)c1ccc2ncsc2c1 | 
10 |  | 9.54 | O=C(O)C[C@H](NC(=O)CN1CC[C@H](CCc2ccc3c(n2)NCCC3)C1=O)c1ccc2[nH]c(=O)oc2c1 | 
11 | 8 | 8.40 | O=C(O)C[C@H](NC(=O)CN1CC[C@H](CCc2ccc3c(n2)NCCC3)C1=O)c1ccccc1 | 
12 | 19 |  | O=C(O)C[C@H](NC(=O)CN1CC[C@H](CCc2ccc3c(n2)NCCC3)C1=O)c1ccc2nc(O)oc2c1 | 
13 |  | 9.49 | O=C(O)C[C@H](NC(=O)CN1CC[C@H](CCc2ccc3c(n2)NCCC3)C1=O)c1ccc2c(c1)OCO2 | bioavailability [4]: 30%; logP [2]: 0.26; inhibition [5]: 50%; clearance [6]: 25 mL/min/kg
14 | 29 | 8.66 | O=C(O)C[C@H](NC(=O)CN1CC[C@H](CCc2ccc3c(n2)NCCC3)C1=O)c1ccc2ccsc2c1 | 
15 | 28 | 9.51 | CCOc1ccc([C@H](CC(=O)O)NC(=O)CN2CC[C@H](CCc3ccc4c(n3)NCCC4)C2=O)cc1F | 
16 | 6 | 8.74 | O=C(O)C[C@H](NC(=O)CN1CC[C@H](CCc2ccc3c(n2)NCCC3)C1=O)c1cccc(F)c1 | 
17 |  | 9.46 | O=C(O)C[C@H](NC(=O)CN1CC[C@H](CCc2ccc3c(n2)NCCC3)C1=O)c1cccnc1 | inhibition [7]: 50%
